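These data come from cells grown in 96-well plates and exposed to compound for 48 hours at five concentrations. Abbreviation: GI50, concentration required for 50% inhibition of growth. At the TGI there is no net growth.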

Some test systems named below: HT29 colon; SK-MEL-2 melanoma; TK-10 renal; HCT-15 colon; MOLT-4 leukemia; MDA-MB-435; T-47D breast; NCI/ADR-RES ovarian; EKVX NSCLC; SF-539 CNS.
What all share (experiment): NCI tumour cell line growth inhibition, 48 h

Take `N#Cc1c(N)n(-c2nc3ccccc3s2)c(=O)c2cc([N+](=O)[O-])ccc12`: the TGI in the test on HT29 colon is 14.3 µM; with SK-MEL-2 melanoma, 40.3 µM; in the test with TK-10 renal it was over 100 µM; with HCT-15 colon it was 19.4 µM; in the test with MOLT-4 leukemia, 19.9 µM; with MDA-MB-435 it was over 69.1 µM. For the same compound, the TGI is over 100 µM in the test on T-47D breast, 22.8 µM with NCI/ADR-RES ovarian, over 56.3 µM with EKVX NSCLC and 28 µM with SF-539 CNS.
Regarding `COc1ccc(OC)c2c(Nc3ccc(S(=O)(=O)O)c4cc(S(=O)(=O)O)cc(S(=O)(=O)O)c34)cc(C)nc12`, the TGI in the test with HT29 colon, in the test with SK-MEL-2 melanoma, with TK-10 renal, in the test on HCT-15 colon, in the test with MOLT-4 leukemia and with MDA-MB-435 was over 100 µM throughout. Also, the TGI with T-47D breast, in the test on NCI/ADR-RES ovarian, with EKVX NSCLC and in the test with SF-539 CNS was over 100 µM in each case.
Regarding `Cc1nnc(N)s/c1=N/O`, the TGI in the test with HT29 colon, with SK-MEL-2 melanoma, in the test on TK-10 renal, in the test on HCT-15 colon, in the test with MOLT-4 leukemia and in the test with MDA-MB-435 was over 100 µM each time. Moreover, the TGI with T-47D breast, with NCI/ADR-RES ovarian, in the test with EKVX NSCLC and in the test on SF-539 CNS was over 100 µM in each case.
`C(/Cc1ccc2c(c1)OCO2)=N\NC1=NCCCCN1`: the TGI in the test on HT29 colon, in the test on SK-MEL-2 melanoma, with TK-10 renal, in the test on HCT-15 colon, in the test on MOLT-4 leukemia and in the test on MDA-MB-435 was over 100 µM in each case. The TGI in the test on T-47D breast, with NCI/ADR-RES ovarian, with EKVX NSCLC and with SF-539 CNS was over 100 µM each time.
`Cc1cc(N(CCCl)CCCl)ccc1/C=N\NC(=O)c1cccnc1`: the GI50 is 30.3 µM in the test on HT29 colon; 27.3 µM with SK-MEL-2 melanoma; 11.2 µM with TK-10 renal; 21.9 µM in the test with HCT-15 colon; 8.19 µM with MOLT-4 leukemia; 24.6 µM in the test with MDA-MB-435. Moreover, the GI50 is 6.41 µM in the test on T-47D breast, 13.7 µM with NCI/ADR-RES ovarian, 48.8 µM in the test on EKVX NSCLC and 13.9 µM in the test with SF-539 CNS. Besides, the TGI was over 100 µM with HT29 colon; 59 µM in the test with SK-MEL-2 melanoma; 36.2 µM in the test on TK-10 renal; over 100 µM with HCT-15 colon; 39.2 µM in the test with MOLT-4 leukemia; over 100 µM with MDA-MB-435. Also, the TGI is 50.2 µM in the test with T-47D breast, 48.7 µM in the test with NCI/ADR-RES ovarian, over 100 µM with EKVX NSCLC and over 100 µM with SF-539 CNS.
With `N#Cc1c2c(c(Nc3ccc(Cl)cc3)n3c1nc1ccccc13)CCCC2`, the TGI with HT29 colon, with SK-MEL-2 melanoma, with TK-10 renal, in the test on HCT-15 colon, with MOLT-4 leukemia and in the test on MDA-MB-435 was over 100 µM in each case. The TGI in the test with T-47D breast, with NCI/ADR-RES ovarian, in the test with EKVX NSCLC and in the test on SF-539 CNS was over 100 µM each time.
Take `COc1cc(CC2C(=O)OCC2Cc2ccc(OC)c(OC)c2)ccc1O` (stereo not given): the TGI in the test on HT29 colon was over 100 µM; in the test with SK-MEL-2 melanoma, over 100 µM; with TK-10 renal it was over 100 µM; with HCT-15 colon, over 100 µM; in the test on MOLT-4 leukemia, over 31.7 µM; with MDA-MB-435, over 100 µM. Further, the TGI in the test on T-47D breast, with NCI/ADR-RES ovarian, in the test on EKVX NSCLC and in the test on SF-539 CNS was over 100 µM in each case.
Regarding `COc1ccc(/[N+]([O-])=C/c2ccccc2OC(=S)S)cc1`, the TGI in the test with HT29 colon is 49.7 µM; in the test on SK-MEL-2 melanoma, 65.7 µM; in the test on TK-10 renal, over 100 µM; in the test with HCT-15 colon, over 100 µM; in the test with MOLT-4 leukemia it was over 100 µM; in the test on MDA-MB-435, 55.7 µM. The TGI in the test on T-47D breast was over 100 µM; in the test with NCI/ADR-RES ovarian it was 94.9 µM; in the test with EKVX NSCLC, over 100 µM; with SF-539 CNS it was 52 µM.
On to `Oc1[nH]c2ccccc2c1N=Nc1nc(-c2ccccc2)cs1`, for which the TGI with HT29 colon, with SK-MEL-2 melanoma, in the test on TK-10 renal, with HCT-15 colon, in the test on MOLT-4 leukemia and in the test with MDA-MB-435 was over 100 µM throughout. Besides, the TGI in the test on T-47D breast is over 100 µM; in the test on NCI/ADR-RES ovarian, 83 µM; in the test on EKVX NSCLC it was 76.7 µM; in the test on SF-539 CNS, 28.9 µM.
Turning to `CC(=O)OC1C(C)OC(OC2C[C@](O)(C(C)=O)Cc3c(O)c4c(c(O)c32)C(=O)c2ccccc2C4=O)C(F)C1OC(C)=O` (stereo not given in full), the TGI is over 100 µM in the test with HT29 colon; 11.3 µM in the test with SK-MEL-2 melanoma; 4.29 µM with TK-10 renal; 6.34 µM in the test with HCT-15 colon; 0.112 µM in the test with MOLT-4 leukemia; 23.5 µM in the test on MDA-MB-435. For the same compound, the TGI in the test on T-47D breast worked out at 41.2 µM; in the test with NCI/ADR-RES ovarian, 9.46 µM; with EKVX NSCLC it was 99.2 µM; with SF-539 CNS, 1.03 µM.
As to `O=C1c2sccc2C(=O)c2c(CO)csc21`, the TGI was 9.55 µM in the test with HT29 colon; 8.63 µM in the test with SK-MEL-2 melanoma; 23 µM in the test with TK-10 renal; 11.2 µM in the test on HCT-15 colon; over 52.9 µM in the test with MOLT-4 leukemia; 4.62 µM with MDA-MB-435. The TGI was found to be 17.5 µM in the test with T-47D breast, 19.1 µM in the test with NCI/ADR-RES ovarian, 26.6 µM in the test with EKVX NSCLC and 14.8 µM in the test with SF-539 CNS.
Regarding `CCCSC1=N/C(=C\c2ccco2)C(=O)N1`, the TGI in the test with HT29 colon, with SK-MEL-2 melanoma, in the test on TK-10 renal, in the test with HCT-15 colon, with MOLT-4 leukemia and in the test with MDA-MB-435 was over 100 µM in each case. Further, the TGI in the test on T-47D breast, in the test with NCI/ADR-RES ovarian, in the test with EKVX NSCLC and with SF-539 CNS was over 100 µM throughout.
Take `N/N=C(\N)SCc1ccc(N=C=S)cc1`: the TGI in the test with HT29 colon, with SK-MEL-2 melanoma, in the test on TK-10 renal, in the test on HCT-15 colon, in the test with MOLT-4 leukemia and in the test on MDA-MB-435 was over 100 µM each time. The TGI in the test on T-47D breast, with NCI/ADR-RES ovarian, with EKVX NSCLC and in the test on SF-539 CNS was over 100 µM each time.
As to `CCOC(=O)C1(NC(=O)OC(C)(C)C)CCc2[nH]oc(=O)c2C1` (stereo not given), the TGI in the test on HT29 colon, with SK-MEL-2 melanoma, with TK-10 renal, in the test with HCT-15 colon, with MOLT-4 leukemia and with MDA-MB-435 was over 100 µM throughout. Further, the TGI in the test on T-47D breast, in the test on NCI/ADR-RES ovarian, in the test with EKVX NSCLC and in the test with SF-539 CNS was over 100 µM each time.
As to `O=P1(C(O)c2ccccc2)N(Cc2ccccc2)[C@@H]2CCCC[C@H]2N1Cc1ccccc1` (stereo not given in full), the TGI was 46.3 µM in the test with HT29 colon; 73.7 µM with SK-MEL-2 melanoma; over 100 µM with TK-10 renal; over 100 µM in the test with HCT-15 colon; 49.1 µM in the test with MOLT-4 leukemia; 71 µM in the test on MDA-MB-435. Also, the TGI with T-47D breast was 85.6 µM; with NCI/ADR-RES ovarian, over 100 µM; in the test with EKVX NSCLC, over 100 µM; in the test on SF-539 CNS, 45.6 µM.

Values taken from PubChem BioAssay (NCI).
